{"source": "paper PMC6596218", "about": "“Anthranilic amide and imidazobenzothiadiazole compounds disrupt Mycobacterium tuberculosis membrane potential” (MedChemComm, 2019)", "key": {"[1]": {"system": "M. tuberculosis H37Rv", "experiment": "Minimum bactericidal concentration at pH 4.5 (MBC4.5), luminescence readout", "format": "cell-based, Mycobacterium tuberculosis", "conditions": "median, pH 4.5 phosphate citrate buffer, 7 days, 2-log reduction threshold, replicates in parentheses; for MBC: Mycobacterium tuberculosis, H37RV, 168 h"}, "[2]": {"system": "HepG2 cells", "experiment": "HepG2 cytotoxicity (CellTiter-Glo, 72 h)", "format": "cell-based", "conditions": "Homo sapiens, mean ± standard deviation, replicates in parentheses"}, "[3]": {"system": "M. tuberculosis", "design": "method as in PMID 30501173", "conditions": "non-replicating, cited from earlier work"}, "[4]": {"system": "non-replicating M. tuberculosis", "experiment": "Non-replicating kill kinetics at pH 5.5 (CFU over 21 days)", "format": "cell-based, Mycobacterium tuberculosis", "conditions": "single replicate; for log kill within 21 days: pH 5.5, 21 days"}, "[5]": {"system": "intracellular M. tuberculosis in RAW 264.7 cells", "experiment": "Activity against intracellular M. tuberculosis in RAW 264.7 cells", "format": "cell-based, Mycobacterium tuberculosis", "conditions": "RAW 264.7 cells (ATCC TIB-71)", "source_text": "In addition to determination of the MBC4.5 for each compound, we evaluated antitubercular activity of the compounds as measured by MIC at pH 5.6 (Table S1 ^†) and IC50 against intracellular M. tuberculosis in RAW 264.7 cells (ATCC TIB-71) (Table S2 ^†). […] General cytotoxicity against the infected RAW 264.7 cells was observed and was correlated with cytotoxicity against HepG2 cells (Table S2 ^†)."}}}
{"smiles": "O=[N+]([O-])c1cc2nc(C(F)(F)F)[nH]c2c2nsnc12", "note": "[Compound 2]", "values": [{"measurement": "MBC", "setting": "[1]", "value": 25, "unit": "µM"}, {"measurement": "MBC4.5", "setting": "[1]", "value": "25 (2) μM"}, {"measurement": "IC50", "setting": "[2]", "value": "83 ± 24", "unit": "µM"}, {"measurement": "decrease of CFU in the culture within 7 days", "setting": "[3]; pH 4.5 and pH 6.8, 10–100 μM, 7 days", "value": "> 4", "unit": "logs"}, {"measurement": "time to sterilizing the culture", "setting": "[3]; pH 4.5 and pH 6.8, all concentrations 10–100 μM", "value": "≤ 14", "unit": "days"}]}
{"smiles": "CS(=O)(=O)Nc1ccccc1C(=O)Nc1ccc(Cl)cc1Cl", "note": "[Compound 8, N-(2,4-dichlorophenyl)-2-(methylsulfonamido)benzamide]", "values": [{"measurement": "log kill at 14 days", "setting": "[4]; pH 5.5, 14 days", "value": "> 4", "unit": "log"}, {"measurement": "MBC", "setting": "[1]", "value": 75, "unit": "µM"}, {"measurement": "IC50", "setting": "[2]", "value": "78 ± 29", "unit": "µM"}]}
{"smiles": "CCN(C)c1ccccc1C(=O)Nc1ccc(Cl)cc1Cl", "note": "[Compound 11, N-(2,4-dichlorophenyl)-2-(ethyl(methyl)amino)benzamide]", "values": [{"measurement": "antitubercular activity against intracellular M. tuberculosis", "setting": "[5]", "value": "showed antitubercular activity"}, {"measurement": "MBC", "setting": "[1]", "value": "> 200", "unit": "µM"}, {"measurement": "IC50", "setting": "[2]", "value": "69 ± 44", "unit": "µM"}]}
{"smiles": "Cc1ccc(S(=O)(=O)Nc2ccccc2C(=O)Nc2ccc(Cl)cc2Cl)cc1", "note": "[Compound 15, N-(2,4-dichlorophenyl)-2-(4-methylphenylsulfonamido)benzamide]", "values": [{"measurement": "log kill within 21 days", "setting": "[4]", "value": "> 3", "unit": "logs"}, {"measurement": "MBC", "setting": "[1]", "value": "> 200", "unit": "µM"}, {"measurement": "IC50", "setting": "[2]", "value": "37 ± 8.5", "unit": "µM"}]}
{"smiles": "O=C(Nc1ccccn1)c1ccccc1NS(=O)(=O)c1ccc(Br)cc1", "note": "[Compound 24, 2-(4-bromophenylsulfonamido)-N-(pyridin-2-yl)benzamide]", "values": [{"measurement": "log kill within 21 days", "setting": "[4]", "value": "> 3", "unit": "logs"}, {"measurement": "MBC", "setting": "[1]", "value": 113, "unit": "µM"}, {"measurement": "IC50", "setting": "[2]", "value": "52 ± 13", "unit": "µM"}]}
